# The kinase profiling compilation of Christmann-Franck et al. (2016)
# Experiments:
# Assay in all cases: KINOMEscan competition binding
# Details in all cases: compound 0.1 µM
# DYRK1B (human) = DYRK1B (human) (UniProt Q9Y463)
# [1] = system: EGFR (human), P00533 [747-751 del / S ins]
# RPS6KA4 KD1 (human) = RPS6KA4 KD1 (human) (UniProt O75676)
# IGF1R (human) = IGF1R (human) (UniProt P08069)
# TGFBR2 (human) = TGFBR2 (human) (UniProt P37173)
# CPK1 (P.falciparum) = system: CPK1 (P.falciparum)
# BMPR2 (human) = BMPR2 (human) (UniProt Q13873)
# FLT1 (human) = FLT1 (human) (UniProt P17948)
# MAPK13 (human) = MAPK13 (human) (UniProt O15264)
# MYO3B (human) = MYO3B (human) (UniProt Q8WXR4)
# Chain of MYO3B (human) (Q8WXR4 whole entry, looked up): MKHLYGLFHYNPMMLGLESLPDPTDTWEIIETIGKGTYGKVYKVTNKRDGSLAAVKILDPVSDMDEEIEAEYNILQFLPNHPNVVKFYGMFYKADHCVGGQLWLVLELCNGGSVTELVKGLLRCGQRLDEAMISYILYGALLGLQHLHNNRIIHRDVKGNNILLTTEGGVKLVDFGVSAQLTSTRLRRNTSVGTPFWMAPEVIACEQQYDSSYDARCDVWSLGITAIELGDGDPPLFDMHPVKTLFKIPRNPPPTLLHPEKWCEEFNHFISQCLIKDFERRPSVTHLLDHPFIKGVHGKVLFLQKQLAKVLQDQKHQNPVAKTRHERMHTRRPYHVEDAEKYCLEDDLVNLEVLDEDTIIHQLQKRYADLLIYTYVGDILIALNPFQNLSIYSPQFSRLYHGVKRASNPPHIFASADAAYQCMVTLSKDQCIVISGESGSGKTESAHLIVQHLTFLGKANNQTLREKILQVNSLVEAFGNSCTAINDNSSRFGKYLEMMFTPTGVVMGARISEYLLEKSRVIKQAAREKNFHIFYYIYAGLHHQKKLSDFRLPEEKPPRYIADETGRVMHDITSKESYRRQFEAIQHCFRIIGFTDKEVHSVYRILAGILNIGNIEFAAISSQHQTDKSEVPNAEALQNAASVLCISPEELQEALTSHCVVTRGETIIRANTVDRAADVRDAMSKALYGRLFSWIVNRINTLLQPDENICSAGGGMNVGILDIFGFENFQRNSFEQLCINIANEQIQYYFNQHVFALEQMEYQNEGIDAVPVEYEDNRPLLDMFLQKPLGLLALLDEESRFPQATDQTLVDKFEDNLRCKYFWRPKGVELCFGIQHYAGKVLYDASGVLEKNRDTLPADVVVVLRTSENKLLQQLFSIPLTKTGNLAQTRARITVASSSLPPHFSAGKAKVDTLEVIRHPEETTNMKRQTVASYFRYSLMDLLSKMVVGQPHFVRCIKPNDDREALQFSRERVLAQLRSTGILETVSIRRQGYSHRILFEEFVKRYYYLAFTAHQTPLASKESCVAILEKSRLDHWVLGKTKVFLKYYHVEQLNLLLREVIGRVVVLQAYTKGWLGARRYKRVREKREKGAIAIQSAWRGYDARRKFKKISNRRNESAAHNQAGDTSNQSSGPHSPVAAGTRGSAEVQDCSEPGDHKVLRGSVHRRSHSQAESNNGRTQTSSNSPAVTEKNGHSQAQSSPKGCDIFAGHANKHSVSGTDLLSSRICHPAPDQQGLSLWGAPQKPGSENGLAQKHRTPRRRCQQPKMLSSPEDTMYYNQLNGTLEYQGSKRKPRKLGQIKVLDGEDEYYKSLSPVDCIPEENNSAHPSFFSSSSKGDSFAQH
# DYRK2 (human) = DYRK2 (human) (UniProt Q92630)
# [2] = system: KIT (human), P10721 [V559D/T670I]
# Chain of KIT (human), P10721 [V559D/T670I] (P10721 whole entry V559D/T670I, looked up): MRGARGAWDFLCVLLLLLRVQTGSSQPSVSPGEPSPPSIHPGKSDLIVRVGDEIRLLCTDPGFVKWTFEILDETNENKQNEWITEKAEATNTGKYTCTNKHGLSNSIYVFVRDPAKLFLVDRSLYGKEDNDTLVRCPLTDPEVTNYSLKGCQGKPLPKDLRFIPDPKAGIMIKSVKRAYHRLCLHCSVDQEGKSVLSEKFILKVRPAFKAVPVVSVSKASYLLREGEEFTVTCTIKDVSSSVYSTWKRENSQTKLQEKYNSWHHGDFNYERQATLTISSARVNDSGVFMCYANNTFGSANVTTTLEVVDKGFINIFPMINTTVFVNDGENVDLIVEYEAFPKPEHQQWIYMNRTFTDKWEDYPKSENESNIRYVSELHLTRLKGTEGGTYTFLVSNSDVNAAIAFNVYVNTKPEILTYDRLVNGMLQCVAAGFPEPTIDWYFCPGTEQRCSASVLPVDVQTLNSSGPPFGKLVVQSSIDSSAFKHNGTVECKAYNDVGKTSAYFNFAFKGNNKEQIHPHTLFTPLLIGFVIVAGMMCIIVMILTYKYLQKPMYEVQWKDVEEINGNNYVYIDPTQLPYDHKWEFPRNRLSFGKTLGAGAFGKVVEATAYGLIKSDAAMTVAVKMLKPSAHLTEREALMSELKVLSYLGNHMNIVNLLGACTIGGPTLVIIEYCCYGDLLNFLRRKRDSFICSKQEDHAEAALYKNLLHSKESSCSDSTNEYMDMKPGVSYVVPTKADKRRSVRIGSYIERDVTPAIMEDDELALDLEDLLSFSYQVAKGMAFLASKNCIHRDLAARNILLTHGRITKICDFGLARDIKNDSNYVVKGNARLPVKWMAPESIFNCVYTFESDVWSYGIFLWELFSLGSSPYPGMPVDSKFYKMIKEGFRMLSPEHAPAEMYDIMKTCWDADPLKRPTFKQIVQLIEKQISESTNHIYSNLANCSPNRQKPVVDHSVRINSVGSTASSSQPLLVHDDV
# ROCK1 (human) = ROCK1 (human) (UniProt Q13464)
# SRPK3 (human) = SRPK3 (human) (UniProt Q9UPE1)
# NEK11 (human) = NEK11 (human) (UniProt Q8NG66)
# Chain of NEK11 (human) (Q8NG66 whole entry, looked up): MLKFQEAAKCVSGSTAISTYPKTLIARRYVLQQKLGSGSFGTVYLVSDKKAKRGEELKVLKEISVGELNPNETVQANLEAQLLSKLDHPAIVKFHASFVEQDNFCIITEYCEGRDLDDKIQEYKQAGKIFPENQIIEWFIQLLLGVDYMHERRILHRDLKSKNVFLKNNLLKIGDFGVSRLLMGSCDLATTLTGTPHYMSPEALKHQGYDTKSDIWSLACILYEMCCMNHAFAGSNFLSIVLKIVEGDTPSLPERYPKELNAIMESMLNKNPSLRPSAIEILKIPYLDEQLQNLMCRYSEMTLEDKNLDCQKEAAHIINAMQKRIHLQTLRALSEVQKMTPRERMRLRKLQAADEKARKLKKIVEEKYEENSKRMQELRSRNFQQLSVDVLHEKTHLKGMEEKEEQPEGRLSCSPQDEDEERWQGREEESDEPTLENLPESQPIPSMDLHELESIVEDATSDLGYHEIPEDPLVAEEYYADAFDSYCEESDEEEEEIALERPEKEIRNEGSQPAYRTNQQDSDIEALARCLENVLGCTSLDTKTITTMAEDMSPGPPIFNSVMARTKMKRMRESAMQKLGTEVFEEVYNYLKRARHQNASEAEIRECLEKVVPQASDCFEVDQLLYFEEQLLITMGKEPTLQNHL
# MYLK3 (human) = MYLK3 (human) (UniProt Q32MK0)
# PRKX (human) = PRKX (human) (UniProt P51817)
# PTK6 (human) = PTK6 (human) (UniProt Q13882)
# [3] = system: KIT (human), P10721 [A829P]
# Chain of KIT (human), P10721 [A829P] (P10721 whole entry A829P, looked up): as the sequence (P10721 whole entry V559D/T670I, looked up) above, with D559V, I670T, A829P counted along it
# TESK1 (human) = TESK1 (human) (UniProt Q15569)
# CIT (human) = CIT (human) (UniProt O14578)
# [4] = system: FLT3 (human), P36888 [R834Q]
# ACVR1B (human) = ACVR1B (human) (UniProt P36896)
# Chain of ACVR1B (human) (P36896 whole entry, looked up): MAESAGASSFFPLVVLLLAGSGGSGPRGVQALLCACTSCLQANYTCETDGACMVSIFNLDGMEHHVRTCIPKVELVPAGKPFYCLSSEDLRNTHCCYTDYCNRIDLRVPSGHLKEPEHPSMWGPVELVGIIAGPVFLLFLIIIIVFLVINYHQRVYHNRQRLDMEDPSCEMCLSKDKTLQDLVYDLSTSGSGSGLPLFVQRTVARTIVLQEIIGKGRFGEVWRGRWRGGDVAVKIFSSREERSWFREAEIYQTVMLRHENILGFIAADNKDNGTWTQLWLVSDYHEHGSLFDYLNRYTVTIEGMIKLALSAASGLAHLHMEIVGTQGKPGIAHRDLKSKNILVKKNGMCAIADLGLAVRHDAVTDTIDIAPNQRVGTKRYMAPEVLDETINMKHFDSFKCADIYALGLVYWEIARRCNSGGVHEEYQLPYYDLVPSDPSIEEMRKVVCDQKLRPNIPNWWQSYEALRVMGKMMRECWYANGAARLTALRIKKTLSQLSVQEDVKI
# TAOK2 (human) = TAOK2 (human) (UniProt Q9UL54)
# RIPK4 (human) = RIPK4 (human) (UniProt P57078)
# DCLK1 (human) = DCLK1 (human) (UniProt O15075)
# ROCK2 (human) = ROCK2 (human) (UniProt O75116)
# CDC42BPA (human) = CDC42BPA (human) (UniProt Q5VT25)
# DSTYK (human) = DSTYK (human) (UniProt Q6XUX3)
# PRKD1 (human) = PRKD1 (human) (UniProt Q15139)
# PRPF4B (human) = PRPF4B (human) (UniProt Q13523)
# FRK (human) = FRK (human) (UniProt P42685)
# FYN (human) = FYN (human) (UniProt P06241)
# Chain of FYN (human) (P06241 whole entry, looked up): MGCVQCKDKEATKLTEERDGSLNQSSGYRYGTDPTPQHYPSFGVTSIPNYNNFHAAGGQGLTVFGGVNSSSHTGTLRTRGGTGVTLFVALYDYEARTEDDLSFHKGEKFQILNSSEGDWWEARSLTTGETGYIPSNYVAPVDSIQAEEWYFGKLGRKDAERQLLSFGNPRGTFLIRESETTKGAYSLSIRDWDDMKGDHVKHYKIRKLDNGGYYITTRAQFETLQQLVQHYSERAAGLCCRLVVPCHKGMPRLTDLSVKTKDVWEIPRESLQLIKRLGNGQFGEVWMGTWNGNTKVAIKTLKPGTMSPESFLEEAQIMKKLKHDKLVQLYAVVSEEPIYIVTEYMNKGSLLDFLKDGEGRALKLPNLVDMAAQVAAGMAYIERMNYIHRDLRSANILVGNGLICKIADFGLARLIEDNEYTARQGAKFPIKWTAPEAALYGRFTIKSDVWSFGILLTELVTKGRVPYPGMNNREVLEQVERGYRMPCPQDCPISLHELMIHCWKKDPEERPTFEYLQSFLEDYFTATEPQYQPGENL
# TSSK1B (human) = TSSK1B (human) (UniProt Q9BXA7)
# AKT3 (human) = AKT3 (human) (UniProt Q9Y243)
# PAK6 (human) = PAK6 (human) (UniProt Q9NQU5)
# RPS6KB1 (human) = RPS6KB1 (human) (UniProt P23443)
# TAOK3 (human) = TAOK3 (human) (UniProt Q9H2K8)
# CASK (human) = CASK (human) (UniProt O14936)
# [5] = system: MET (human), P08581 [M1250T]
# Chain of RPS6KA4 KD1 (human) (O75676 whole entry, looked up): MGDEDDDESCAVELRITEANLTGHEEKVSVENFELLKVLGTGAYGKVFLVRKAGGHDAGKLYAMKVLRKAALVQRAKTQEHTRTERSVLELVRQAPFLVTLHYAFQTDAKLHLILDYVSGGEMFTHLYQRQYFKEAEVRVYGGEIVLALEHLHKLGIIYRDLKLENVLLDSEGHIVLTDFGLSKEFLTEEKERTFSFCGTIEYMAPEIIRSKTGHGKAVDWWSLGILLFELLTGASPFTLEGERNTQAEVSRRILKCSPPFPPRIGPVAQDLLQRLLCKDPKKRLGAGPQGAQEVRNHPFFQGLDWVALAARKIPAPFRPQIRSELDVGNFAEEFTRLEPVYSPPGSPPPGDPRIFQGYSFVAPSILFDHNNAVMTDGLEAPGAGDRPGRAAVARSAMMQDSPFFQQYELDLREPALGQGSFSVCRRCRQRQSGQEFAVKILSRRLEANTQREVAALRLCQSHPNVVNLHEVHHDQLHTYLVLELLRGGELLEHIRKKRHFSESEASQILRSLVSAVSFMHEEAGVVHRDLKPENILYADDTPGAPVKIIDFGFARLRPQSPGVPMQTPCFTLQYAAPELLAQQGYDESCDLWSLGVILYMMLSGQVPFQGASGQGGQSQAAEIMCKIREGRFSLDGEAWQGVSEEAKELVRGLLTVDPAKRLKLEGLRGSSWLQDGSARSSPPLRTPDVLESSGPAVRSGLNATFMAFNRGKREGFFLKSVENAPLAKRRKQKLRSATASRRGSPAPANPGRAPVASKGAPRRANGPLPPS
compound,measurement,setting,value
CCc1ccc(C(=O)Nc2cc(CN3CCN(C)CC3)cc(C(F)(F)F)c2)cc1C#Cc1cnc2ccnn2c1,"kinase still bound, per cent of control",DYRK1B (human),53%
same,"kinase still bound, per cent of control",[1],100%
same,"kinase still bound, per cent of control",RPS6KA4 KD1 (human),93%
same,"kinase still bound, per cent of control",IGF1R (human),100%
same,"kinase still bound, per cent of control",TGFBR2 (human),100%
same,"kinase still bound, per cent of control",CPK1 (P.falciparum),100%
same,"kinase still bound, per cent of control",BMPR2 (human),90%
same,"kinase still bound, per cent of control",FLT1 (human),84%
same,"kinase still bound, per cent of control",MAPK13 (human),69%
same,"kinase still bound, per cent of control",MYO3B (human),100%
same,"kinase still bound, per cent of control",DYRK2 (human),86%
same,"kinase still bound, per cent of control",[2],96%
same,"kinase still bound, per cent of control",ROCK1 (human),83%
same,"kinase still bound, per cent of control",SRPK3 (human),92%
same,"kinase still bound, per cent of control",NEK11 (human),91%
same,"kinase still bound, per cent of control",MYLK3 (human),100%
same,"kinase still bound, per cent of control",PRKX (human),100%
same,"kinase still bound, per cent of control",PTK6 (human),100%
same,"kinase still bound, per cent of control",[3],69%
same,"kinase still bound, per cent of control",TESK1 (human),73%
same,"kinase still bound, per cent of control",CIT (human),92%
same,"kinase still bound, per cent of control",[4],100%
same,"kinase still bound, per cent of control",ACVR1B (human),100%
same,"kinase still bound, per cent of control",TAOK2 (human),100%
same,"kinase still bound, per cent of control",RIPK4 (human),100%
same,"kinase still bound, per cent of control",DCLK1 (human),100%
same,"kinase still bound, per cent of control",ROCK2 (human),100%
same,"kinase still bound, per cent of control",CDC42BPA (human),84%
same,"kinase still bound, per cent of control",DSTYK (human),100%
same,"kinase still bound, per cent of control",PRKD1 (human),100%
same,"kinase still bound, per cent of control",PRPF4B (human),75%
same,"kinase still bound, per cent of control",FRK (human),47%
same,"kinase still bound, per cent of control",FYN (human),72%
same,"kinase still bound, per cent of control",TSSK1B (human),95%
same,"kinase still bound, per cent of control",AKT3 (human),100%
same,"kinase still bound, per cent of control",PAK6 (human),81%
same,"kinase still bound, per cent of control",RPS6KB1 (human),100%
same,"kinase still bound, per cent of control",TAOK3 (human),100%
same,"kinase still bound, per cent of control",CASK (human),100%
same,"kinase still bound, per cent of control",[5],85%
